The record followed here is patent publication US6638509B1, “Toxin conjugates” (Kyowa Hakko Kogyo, Co., Ltd., priority 1995, dated 2003).

The assay has as its system Human myeloma SK-Ly-18 cells. Put plainly: Therapeutic effect on transplanted tumor in nude mice (Test Example 4). Type of assay: in vivo, BALB/C nu/nu mice. The note with it: intravenous, amount corresponding to 7.5 mg/kg ADM, on the 7th day after transplantation, compared with control group, FIG. 2. The protocol:
Human myeloma SK-Ly-18 cells were suspended in RPMI-1640 medium containing 10% fetal calf serum at a concentration of 2×10^8 cells/ml, and the suspension was mixed with Matrigel (registered trademark; Becton Dickinson Labware, USA) in the ratio of 1:1 (v/v). The mixture (0.1 ml, 1×10^7 cells/mouse) was subcutaneously transplanted into BALB/C nu/nu mice (Clea Japan, Inc.). On the 7th day after the tumor transplantation, a drug-monoclonal antibody conjugate (amount corresponding to 7.5 mg/kg ADM) or ADM (7.5 mg/kg) was intravenously administered to the mice divided in groups each consisting of 5. A control group was given physiological saline in the same manner. The major axis and the minor axis of tumor were measured at intervals, and the tumor volume was calculated as an approximation value of an ellipsoid according to the following equation.
Tumor Volume (mm^3)=(a×b^2)/2
a: major axis (mm) b: minor axis (mm)
The therapeutic effect on the transplanted tumor was evaluated in terms of V/V0, the ratio of the tumor volume on the day of evaluation (V) to that on the day of drug administration (V0).

Consider `COc1cccc2c1C(=O)c1c(O)c3c(c(O)c1C2=O)C[C@@](O)(C(=O)CO)C[C@@H]3O[C@H]1C[C@H](N)[C@H](O)[C@H](C)O1` [ADM, Adriamycin, reference compound], for which the “tumor growth inhibiting effect (V/V0)” value is “a growth inhibiting effect was not observed”.
